Measurements: patent US12377104B1, “Methods for treating a fatty liver disease” (Madrigal Pharmaceuticals, Inc., priority 2024, dated 2025)

Test system: adults with biopsy-confirmed NASH
Test: MAESTRO-NASH: liver enzymes, imaging and biomarkers (MRI-PDFF, CAP, VCTE, MRE, liver and spleen volume, ELF)
Format: in vivo, human
Conditions: 80 mg
[1] = wk 48, baseline ALT ≥30 U per liter
[2] = week 52, baseline ELF score ≥9.8
[3] = week 52, baseline PIIINP ≥9 ng/mL
[4] = week 52, baseline TIMP-I ≥240 ng/ml
[5] = week 52, baseline hyaluronic acid ≥50 ng/ml

Compound: CC(C)c1cc(Oc2c(Cl)cc(-n3nc(C#N)c(=O)[nH]c3=O)cc2Cl)n[nH]c1=O [Resmetirom, 2-(3,5-dichloro-4-((5-isopropyl-6-oxo-1,6-dihydropyridazin-3-yl)oxy)phenyl)-3,5-dioxo-2,3,4,5-tetrahydro-1,2,4-triazine-6-carbonitrile]
- Alanine aminotransferase level, difference from placebo (wk 48): −19.7 percentage points
- Aspartate aminotransferase level, difference from placebo (wk 48): −19.3 percentage points
- γ-Glutamyltransferase level, difference from placebo (wk 48): −28.3 percentage points
- Alanine aminotransferase level, least-squares mean percent change from baseline [1]: −26.6 ± 3.7%
- Aspartate aminotransferase level, least-squares mean percent change from baseline [1]: −22.1 ± 3.9%
- γ-Glutamyltransferase level, least-squares mean percent change from baseline [1]: −25.0 ± 5.5%
- MRI-PDFF, difference from placebo (wk 52): −26.7 percentage points
- MRI-PDFF, least-squares mean percent change from baseline (wk 52): −35.4 ± 2.8%
- MRE ≥19% increase from BL, no. of patients (F1B, responder analysis): 0
- MRE ≥19% reduction from BL, % of patients (F1B, responder analysis): (20.0) %
- MRE ≥19% reduction from BL, no. of patients (F1B, responder analysis): 1
- VCTE/LSM improving >25%, % of patients (F1B, responder analysis): (50.0) %
- VCTE/LSM improving >25%, no. of patients (F1B, responder analysis): 6
- VCTE/LSM improving ≥30%, % of patients (F1B, responder analysis): (41.7) %
- VCTE/LSM improving ≥30%, no. of patients (F1B, responder analysis): 5
- VCTE/LSM worsening ≥25%, % of patients (F1B, responder analysis): (8.3) %
- VCTE/LSM worsening ≥25%, no. of patients (F1B, responder analysis): 1
- VCTE/LSM worsening ≥30%, % of patients (F1B, responder analysis): (8.3) %
- VCTE/LSM worsening ≥30%, no. of patients (F1B, responder analysis): 1
- FibroScan VCTE/LSM, LS mean CFB (F1B, week 52): −3.7 kPa
- FibroScan VCTE/LSM, LS mean CFB difference from PBO (F1B, week 52): −3.1 kPa
- MRE, LS mean % CFB (F1B, week 52): −5.7%
- MRE, LS mean % CFB difference from PBO (F1B, week 52): −13.2%
- MRE ≥19% increase from BL, no. of patients (F2, responder analysis): 0
- MRE ≥19% reduction from BL, % of patients (F2, responder analysis): (35.0) %
- MRE ≥19% reduction from BL, no. of patients (F2, responder analysis): 7
- VCTE/LSM improving ≥25%, % of patients (F2, responder analysis): (44.0) %
- VCTE/LSM improving ≥25%, no. of patients (F2, responder analysis): 37
- VCTE/LSM improving ≥30%, % of patients (F2, responder analysis): (33.3) %
- VCTE/LSM improving ≥30%, no. of patients (F2, responder analysis): 28
- VCTE/LSM worsening ≥25%, % of patients (F2, responder analysis): (11.9) %
- VCTE/LSM worsening ≥25%, no. of patients (F2, responder analysis): 10
- VCTE/LSM worsening ≥30%, % of patients (F2, responder analysis): (8.3) %
- VCTE/LSM worsening ≥30%, no. of patients (F2, responder analysis): 7
- FibroScan VCTE/LSM, LS mean CFB (F2, week 52): −2.3 kPa
- FibroScan VCTE/LSM, LS mean CFB difference from PBO (F2, week 52): 1.1 kPa
- MRE, LS mean % CFB (F2, week 52): −1.9%
- MRE, LS mean % CFB difference from PBO (F2, week 52): 4.0%
- MRE ≥19% increase from BL, % of patients (F3, responder analysis): (3.6) %
- MRE ≥19% increase from BL, no. of patients (F3, responder analysis): 3
- MRE ≥19% reduction from BL, % of patients (F3, responder analysis): (26.2) %
- MRE ≥19% reduction from BL, no. of patients (F3, responder analysis): 22
- VCTE/LSM improving ≥25%, % of patients (F3, responder analysis): (41.1) %
- VCTE/LSM improving ≥25%, no. of patients (F3, responder analysis): 67
- VCTE/LSM improving ≥30%, % of patients (F3, responder analysis): (34.4) %
- VCTE/LSM improving ≥30%, no. of patients (F3, responder analysis): 56
- VCTE/LSM worsening ≥25%, % of patients (F3, responder analysis): (14.7) %
- VCTE/LSM worsening ≥25%, no. of patients (F3, responder analysis): 24
- VCTE/LSM worsening ≥30%, % of patients (F3, responder analysis): (12.9) %
- VCTE/LSM worsening ≥30%, no. of patients (F3, responder analysis): 21
- FibroScan VCTE/LSM, LS mean CFB (F3, week 52): 2.0 kPa
- FibroScan VCTE/LSM, LS mean CFB difference from PBO (F3, week 52): −0.86 kPa
- MRE, LS mean % CFB (F3, week 52): −8.9%
- MRE, LS mean % CFB difference from PBO (F3, week 52): −8.6%
- Liver volume, LS mean % CFB (week 16): −18.8%
- Liver volume, LS mean % CFB difference from PBO (week 16): 18.5%
- MRI-PDFF % fat fraction, LS mean % CFB (week 16): −37.8%
- MRI-PDFF % fat fraction, LS mean % CFB difference from PBO (week 16): −31.4%
- Spleen volume, LS mean % CFB (week 16): −2.4%
- Spleen volume, LS mean % CFB difference from PBO (week 16): −3.9%
- ALT, LS mean % CFB (week 48): −26.6%
- ALT, LS mean % CFB difference from PBO (week 48): −19.7%
- ALT, LS mean CFB (week 48): −20.4 U/L
- AST, LS mean % CFB (week 48): −22.1%
- AST, LS mean % CFB difference from PBO (week 48): −19.3%
- AST, LS mean CFB (week 48): −13.9 U/L
- GGT, LS mean % CFB (week 48): −25.0%
- GGT, LS mean % CFB difference from PBO (week 48): −28.3%
- GGT, LS mean CFB (week 48): −31.3 U/L
- Adiponectin, LS mean CFB (week 52): 0.86 µg/mL
- Adiponectin, LS mean CFB difference from PBO (week 52): 0.97 µg/mL
- CK-18, LS mean CFB (week 52): −278.2 U/L
- CK-18, LS mean CFB difference from PBO (week 52): −134.3 U/L
- FibroScan CAP, LS mean CFB (week 52): −39.6 dB/m
- FibroScan CAP, LS mean CFB difference from PBO (week 52): −25.2 dB/m
- Liver volume, LS mean % CFB (week 52): −21.6%
- Liver volume, LS mean % CFB difference from PBO (week 52): −20.5%
- MRI-PDFF % fat fraction, LS mean % CFB (week 52): −35.4%
- MRI-PDFF % fat fraction, LS mean % CFB difference from PBO (week 52): −26.7%
- Spleen volume, LS mean % CFB (week 52): −5.9%
- Spleen volume, LS mean % CFB difference from PBO (week 52): −9.0%
- Enhanced liver fibrosis score, LS mean CFB [2]: -0.34
- Enhanced liver fibrosis score, LS mean CFB difference from PBO [2]: −0.22
- PIIINP, LS mean % CFB [3]: −10.7%
- PIIINP, LS mean % CFB difference from PBO [3]: −9.7%
- PIIINP, LS mean CFB [3]: 2.0 ng/mL
- PIIINP, LS mean CFB difference from PBO [3]: -1.4 ng/mL
- TIMP-I, LS mean % CFB [4]: −9.3%
- TIMP-I, LS mean % CFB difference from PBO [4]: −5.7%
- TIMP-I, LS mean CFB [4]: -31.0 ng/mL
- TIMP-I, LS mean CFB difference from PBO [4]: -17.7 ng/mL
- Hyaluronic acid, LS mean % CFB [5]: 17.2%
- Hyaluronic acid, LS mean % CFB difference from PBO [5]: −7.6%
- Hyaluronic acid, LS mean CFB [5]: 1.1 µg/L
